From ChEMBL document CHEMBL1126692, “Structure-activity relationships for mitomycins. Application of the distance and charge analysis method” (J Med Chem, 1993)

Key:
Mus musculus = species on record: Mus musculus; assay: Anti cancer activity was determined as effective dose; type: functional
[1] = Anti cancer activity was determined as lethal dose; type: organism-based; details: mouse, in vivo

`C=C1C2=C(C(=O)C(C)=C(OC)C2=O)N2C[C@H]3[C@H](N3C)[C@]12OC` (some centres not stated) [MITOMYCIN G] gave an ED50 (Mus musculus) of 35 mg/kg and an LD50 [1] of 22 mg/kg.

For `CO[C@@]12[C@H](COC(N)=O)C3=C(C(=O)C(C)=C(N)C3=O)N1C[C@@H]1N[C@@H]12` [MITOMYCIN], the ED50 (Mus musculus) was 4.4 mg/kg.

For `COC1=C(C)C(=O)C2=C(C1=O)[C@@H](COC(N)=O)[C@@]1(OC)[C@H]3N[C@H]3CN21` [MITOMYCIN A], the ED50 (Mus musculus) was 1.1 mg/kg and the LD50 [1] was 2.1 mg/kg.

In the case of `CO[C@@]12[C@H](COC(N)=O)C3=C(C(=O)C(C)=C(N)C3=O)N1C[C@H]1[C@@H]2N1C` (some centres not stated) [PORFIROMYCIN], the ED50 (Mus musculus) is reported as 22 mg/kg and the LD50 [1] is reported as 57 mg/kg.

`C=C1C2=C(C(=O)C(C)=C(OC)C2=O)N2C[C@@H]3N[C@@H]3[C@]12OC` gave an ED50 (Mus musculus) of 7.5 mg/kg and an LD50 [1] of 13 mg/kg.

`C=C1C2=C(C(=O)C(C)=C(N)C2=O)N2C[C@@H]3N[C@@H]3[C@]12OC` gave an ED50 (Mus musculus) of 18 mg/kg and an LD50 [1] of 75 mg/kg.

Compound `C=C1C2=C(C(=O)C(C)=C(OC)C2=O)N2C[C@H]3[C@H](N3C)[C@]12O` (some centres not stated) [MITOMYCIN H] has an ED50 (Mus musculus) of 6.8 mg/kg and an LD50 [1] of 12 mg/kg.

For `C=C1C2=C(C(=O)C(C)=C(N)C2=O)N2C[C@H]3[C@H](N3C)[C@]12OC` (some centres not stated) [MITOMYCIN K], the ED50 (Mus musculus) was 100 mg/kg and the LD50 [1] was 130 mg/kg.

`C=C1C2=C(C(=O)C(C)=C(N)C2=O)N2C[C@H]3[C@H](N3C)[C@]12O` (some centres not stated) [MITOMYCIN Z] showed an ED50 (Mus musculus) of 82 mg/kg and an LD50 [1] of 210 mg/kg.
